# Test results: patent publication US10131660B2, “Tetrahydro-azepinoquinolines as agonists of the 5-HT2C receptor” (Sunnylife Pharma, Inc., priority 2014, dated 2018)
# Biological target: T1, human 5-HT2C receptor (Homo sapiens, UniProt P28335)
# T1 construct: host or cells: CHO cells, stably expressing
# T1 sequence (P28335 33-458): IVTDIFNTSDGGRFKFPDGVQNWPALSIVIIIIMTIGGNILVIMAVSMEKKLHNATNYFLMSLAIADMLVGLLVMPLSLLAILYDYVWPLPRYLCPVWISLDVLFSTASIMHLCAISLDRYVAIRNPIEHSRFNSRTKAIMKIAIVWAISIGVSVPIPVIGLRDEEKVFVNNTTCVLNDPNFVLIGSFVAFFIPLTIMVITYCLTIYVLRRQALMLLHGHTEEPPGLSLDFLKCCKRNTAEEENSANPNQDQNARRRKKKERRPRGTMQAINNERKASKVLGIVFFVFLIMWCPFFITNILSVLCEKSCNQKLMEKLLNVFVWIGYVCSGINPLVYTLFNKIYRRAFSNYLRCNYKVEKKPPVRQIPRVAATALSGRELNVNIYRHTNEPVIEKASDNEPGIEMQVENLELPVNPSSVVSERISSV
# Experiment: Functional calcium mobilization (FLIPR) assay, 5-HT2C
# Type: cell-based
# Conditions: CHO cells stably expressing human 5-HT2C receptor; agonist-stimulated Ca2+ flux
# Experimental: (a) Cell Culture for the Human 5-HT2A, Human 5-HT2B, and Human 5-HT2C Receptors:
# CHO cells stably expressing the human 5-HT2A, human 5-HT2B, and human 5-HT2C receptors were purchased from PerkinElmer (Waltham, Mass.). Cells were grown in advance DMEM/F12, 1% dialyzed fetal bovine serum, 2 mM L-glutamine, 100 units/mL penicillin, 1 mg/mL streptomycin, and 0.4 mg/ml Geneticin at 37° C. in 5% CO2 atmosphere.
# (b) Calcium Mobilization Assays:
# Cells were seeded in black clear-bottom 384-well plates at a density of 10,000 cells/well and incubated overnight at 37° C. in 5% CO2/95% atmosphere. After removing medium, cells were loaded with modified HBSS buffer (137.9 mM NaCl, 5.3 mM KCl, 5.5 mM glucose, 20 mM Hepes, 0.49 mM MgCl2, 1.26 mM CaCl2, 0.41 mM MgSO4, 0.33 mM Na2HPO4, and 0.44 mM KH2PO4) containing the FLIPR Calcium 4 dye (Molecular Devices, CA) and probenecid ([…]) and incubated at 37° C. for 60 min, according to the manufacturer's instructions. Compounds were diluted in HBSS buffer containing 6% DMSO as six folds. Final DMSO concentration in the assay was 1%. The dose-response of agonist-stimulated Ca^2+ flux was measured on a Fluorometric Imaging Plate Reader (FLIPR Tetra) (Molecular Devices, CA).
# Data were analyzed by nonlinear least squares curve fitting using GraphPad Prism 5.0 software (GraphPad Software, CA). Agonist stimulation in FLIPR assay was fitted to sigmoidal dose response curves using the equation Y=Bottom+(Top-Bottom)/(1+10^((Log EC50−X)*Hill Slope)), where X is the logarithm of concentration of compounds. Y is the fluorescent response, EC50 is the concentration of compound producing 50% of maximum response. Maximum responses (Emax) of compounds were calculated based on % of stimulation relative to the response of α-methyl-5HT (100%). EC50's are representative of two or three separate experiments performed in triplicates.
row,Compound,EC50 [nM]
1,Clc1ccc(C2CC2)c2nc3c(cc12)CCNCC3,< 1
2,Fc1cc(F)c2cc3c(nc2c1C1CC1)CCNCC3,< 5
3,Fc1cc(C2CC2)c2nc3c(cc2c1F)CCNCC3,< 5
4,Fc1cccc(Oc2ccc(Cl)c3nc4c(cc23)CCNCC4)c1,< 20
5,Fc1cc(C2CC2)c2nc3c(cc2c1Cl)CCNCC3,< 5

# The remaining lines, values ahead:
row,EC50 [nM],Compound
1,< 5,Cc1c2c(nc3c(C4CC4)c(F)cc(F)c13)CCNCC2
2,< 10,Cc1c2c(nc3c(OC4CCCCC4)ccc(F)c13)CCNCC2
3,< 10,Cc1c2c(nc3c(OC4CCCCCC4)ccc(F)c13)CCNCC2
4,< 50,Clc1ccc(OC2CCCCC2)c2cc3c(nc12)CCNCC3
5,< 5,Cc1c2c(nc3c(Cl)ccc(OC4CCCCC4)c13)CCNCC2
6,< 15,Cc1c2c(nc3c(C4CC4)ccc(Cl)c13)CCNCC2
